pIC50: −log10 of the molar value.
Target: phosphorylated active hERK2 enzyme (Homo sapiens (Human), UniProt P28482)
Test: Active Human ERK2 (hERK2) Activity Assay (IMAP-FP)
Assay type: biochemical
Conditions: Table 6, 0.5 nM hERK2, 30 μM ATP, 10 point titration, read-out: AERK2 IC50
How it was run: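 IMAP fluorescence-polarization kinase assay: 0.5 nM activated hERK2 with 900 nM unlabeled plus 80 nM labeled peptide and 30 μM ATP, reacted 60 min. Quenched with IMAP beads in binding buffer with 24 mM NaCl; FP read after 60 min equilibration.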

phosphorylated active hERK2 enzyme, sequence (P28482 whole entry): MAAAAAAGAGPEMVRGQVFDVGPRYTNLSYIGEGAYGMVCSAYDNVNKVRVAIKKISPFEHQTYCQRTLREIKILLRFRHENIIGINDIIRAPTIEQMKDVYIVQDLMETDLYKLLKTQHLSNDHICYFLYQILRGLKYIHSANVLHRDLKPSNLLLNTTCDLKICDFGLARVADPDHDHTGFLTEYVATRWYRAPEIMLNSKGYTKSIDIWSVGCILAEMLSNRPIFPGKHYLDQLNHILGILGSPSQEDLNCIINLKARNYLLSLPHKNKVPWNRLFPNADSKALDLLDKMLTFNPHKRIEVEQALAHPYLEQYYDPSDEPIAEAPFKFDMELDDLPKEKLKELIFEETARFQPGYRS

COC[C@@H](NC(=O)Nc1cc2[nH]nc(NCC3CC(C(C)(C)O)C3)c2cn1)c1ccccc1 (stereo partly drawn) [Example 182, 1-[3-({[3-(1-hydroxy-1-methylethyl)-cyclobutyl]methyl}amino)-1H-pyrazolo[4,3-c]pyridin-6-yl]-3-[(1S)-2-methoxy-1-phenylethyl]urea]
pIC50: 8.59

COC[C@@H](NC(=O)Nc1cc2[nH]nc(NCC3CC(C(C)(C)O)C3)c2cn1)c1ccccc1 (stereo partly drawn) [Example 183, 1-[3-({[3-(1-hydroxy-1-methylethyl)-cyclobutyl]methyl}amino)-1H-pyrazolo[4,3-c]pyridin-6-yl]-3-[(1S)-2-methoxy-1-phenylethyl]urea]
pIC50: 8.44

C[C@@H](NC(=O)Nc1cc2[nH]nc(NC3CCNC3)c2cn1)c1ccccc1 (stereo partly drawn) [Example 184, 1-[(1R)-1-phenylethyl]-3-[3-(pyrrolidin-3-ylamino)-1H-pyrazolo[4,3-c]pyridin-6-yl]urea]
pIC50: 6.99

C[C@@H](NC(=O)Nc1cc2[nH]nc(NC3CCC3)c2cn1)c1ccccc1 [Example 185, 1-[3-(cyclobutylamino)-1H-pyrazolo[4,3-c]pyridin-6-yl]-3-[(1R)-1-phenylethyl]urea]
pIC50: 8.82

C[C@@H](NC(=O)Nc1cc2[nH]nc(NC3CCCC3)c2cn1)c1ccccc1 [Example 186, 1-[3-(cyclopentyl-amino)-1H-pyrazolo[4,3-c]-pyridin-6-yl]-3-[(1R)-1-phenylethyl]urea]
pIC50: 8.64

C[C@@H](NC(=O)Nc1cc2[nH]nc(NC3CCCCC3)c2cn1)c1ccccc1 [Example 187, 1-[3-(cyclohexyl-amino)-1H-pyrazolo[4,3-c]pyridin-6-yl]-3-[(1R)-1-phenylethyl]urea]
pIC50: 8.17

C[C@@H](NC(=O)Nc1cc2[nH]nc(NC3COC3)c2cn1)c1ccccc1 [Example 188, 1-[3-(oxetan-3-yl-amino)-1H-pyrazolo[4,3-c]pyridin-6-yl]-3-[(1R)-1-phenylethyl]urea]
pIC50: 6.84

CC(C)CNc1n[nH]c2cc(NC(=O)N[C@H](C)c3ccccc3)ncc12 [Example 189, 1-{3-[(2-methylpropyl)-amino]-1H-pyrazolo[4,3-c]-pyridin-6-yl}-3-[(1R)-1-phenylethyl]urea]
pIC50: 8.77

C[C@@H](NC(=O)Nc1cc2[nH]nc(NCc3ccccn3)c2cn1)c1ccccc1 [Example 190, 1-[(1R)-1-phenylethyl]-3-{3-[(pyridin-2-yl-methyl)amino]-1H-pyrazolo[4,3-c]-pyridin-6-yl}urea]
pIC50: 8.03

CC(CC(C)(C)O)Nc1n[nH]c2cc(NC(=O)N[C@H](C)c3ccccc3)ncc12 (stereo partly drawn) [Example 191, 1-{3-[(3-hydroxy-1,3-dimethylbutyl)-amino]-1H-pyrazolo[4,3-c]-pyridin-6-yl}-3-[(1R)-1-phenylethyl]urea]
pIC50: 7.19

CC(CS(C)(=O)=O)Nc1n[nH]c2cc(NC(=O)N[C@H](C)c3ccccc3)ncc12 (stereo partly drawn) [Example 192, 1-(3-{[1-methyl-2-(methylsulfonyl)-ethyl]amino}-1H-pyrazolo[4,3-c]-pyridin-6-yl)-3-[(1R)-1-phenylethyl]urea]
pIC50: 7.10

C[C@@H](NC(=O)Nc1cc2[nH]nc(NCCN3CCOCC3)c2cn1)c1ccccc1 [Example 194, 1-{3-[(2-morpholin-4-ylethyl)amino]-1H-pyrazolo[4,3-c]-pyridin-6-yl}-3-[(1R)-1-phenylethyl]urea]
pIC50: 7.55

C[C@@H](NC(=O)Nc1cc2[nH]nc(NC3CCC(F)(F)CC3)c2cn1)c1ccccc1 [Example 195, 1-{3-[(4,4-difluorocyclohexyl)amino]-1H-pyrazolo[4,3-c]-pyridin-6-yl}-3-[(1R)-1-phenylethyl]urea]
pIC50: 7.99

C[C@@H](NC(=O)Nc1cc2[nH]nc(NCC3CCCCO3)c2cn1)c1ccccc1 (stereo partly drawn) [Example 196, 1-[(1R)-1-phenylethyl]-3-{3-[(tetrahydro-2H-pyran-2-yl-methyl)amino]-1H-pyrazolo[4,3-c]-pyridin-6-yl}urea]
pIC50: 7.55

CC(CCl)Nc1n[nH]c2cc(NC(=O)N[C@H](C)c3ccccc3)ncc12 (stereo partly drawn) [Example 197, 1-{3-[(2-chloro-1-methylethyl)amino]-1H-pyrazolo[4,3-c]pyridin-6-yl}-3-[(1R)-1-phenylethyl]urea]
pIC50: 8.51

COC[C@@H](NC(=O)Nc1cc2[nH]nc(NC3COC3)c2cn1)c1ccccc1 [Example 198, 1-[(1S)-2-methoxy-1-phenylethyl]-3-[3-(oxetan-3-yl-amino)-1H-pyrazolo[4,3-c]-pyridin-6-yl]urea]
pIC50: 9.30

C[C@@H](NC(=O)Nc1cc2[nH]nc(NC(=O)CC(F)(F)F)c2cn1)c1ccccc1 [Example 199, 3,3,3-trifluoro-N-[6-({[(1R)-1-phenylethyl]-carbamoyl}amino)-1H-pyrazolo[4,3-c]-pyridin-3-yl]-propanamide]
pIC50: 8.96

Cc1nnsc1C(=O)Nc1n[nH]c2cc(NC(=O)N[C@H](C)c3ccccc3)ncc12 [Example 200, 4-methyl-N-[6-({[(1R)-1-phenylethyl]-carbamoyl}amino)-1H-pyrazolo[4,3-c]pyridin-3-yl]-1,2,3-thiadiazole-5-carboxamide]
pIC50: 8.96

C[C@@H](NC(=O)Nc1cc2[nH]nc(NC(=O)C3CCC3)c2cn1)c1ccccc1 [Example 201, N-[6-({[(1R)-1-phenylethyl]-carbamoyl}amino)-1H-pyrazolo[4,3-c]pyridin-3-yl]-cyclobutane-carboxamide]
pIC50: 9.30

C[C@@H](NC(=O)Nc1cc2[nH]nc(NC(=O)Cc3ccccc3)c2cn1)c1ccccc1 [Example 202, 2-phenyl-N-[6-({[(1R)-1-phenylethyl]-carbamoyl}amino)-1H-pyrazolo[4,3-c]pyridin-3-yl]-acetamide]
pIC50: 9.22

C[C@@H](NC(=O)Nc1cc2[nH]nc(NC(=O)CC3CCCCC3)c2cn1)c1ccccc1 [Example 203, 2-cyclohexyl-N-[6-({[(1R)-1-phenylethyl]-carbamoyl}amino)-1H-pyrazolo[4,3-c]pyridin-3-yl]-acetamide]
pIC50: 8.44

C[C@@H](NC(=O)Nc1cc2[nH]nc(NC(=O)C3CCCCC3)c2cn1)c1ccccc1 [Example 204, N-[6-({[(1R)-1-phenylethyl]-carbamoyl}amino)-1H-pyrazolo[4,3-c]pyridin-3-yl]-cyclohexane-carboxamide]
pIC50: 8.23

C[C@@H](NC(=O)Nc1cc2[nH]nc(NC(=O)C3CCCC3)c2cn1)c1ccccc1 [Example 205, N-[6-({[(1R)-1-phenylethyl]-carbamoyl}amino)-1H-pyrazolo[4,3-c]pyridin-3-yl]-cyclopentane-carboxamide]
pIC50: 8.92

C[C@@H](NC(=O)Nc1cc2[nH]nc(NC(=O)Cc3ccc(F)cc3)c2cn1)c1ccccc1 [Example 206, 2-(4-fluorophenyl)-N-[6-({[(1R)-1-phenylethyl]-carbamoyl}amino)-1H-pyrazolo[4,3-c]pyridin-3-yl]-acetamide]
pIC50: 9.30

C[C@@H](NC(=O)Nc1cc2[nH]nc(NC(=O)c3ccco3)c2cn1)c1ccccc1 [Example 207, N-[6-({[(1R)-1-phenylethyl]-carbamoyl}amino)-1H-pyrazolo[4,3-c]pyridin-3-yl]-furan-2-carboxamide]
pIC50: 8.34

C[C@@H](NC(=O)Nc1cc2[nH]nc(NC(=O)CN(C)C)c2cn1)c1ccccc1 [Example 208]
pIC50: 7.56

CC(C)CC(=O)Nc1n[nH]c2cc(NC(=O)N[C@H](C)c3ccccc3)ncc12 [Example 209, 3-methyl-N-[6-({[(1R)-1-phenylethyl]-carbamoyl}amino)-1H-pyrazolo[4,3-c]pyridin-3-yl]-butanamide]
pIC50: 8.80

C[C@@H](NC(=O)Nc1cc2[nH]nc(NC(=O)CC3CCCC3)c2cn1)c1ccccc1 [Example 210, 2-cyclopentyl-N-[6-({[(1R)-1-phenylethyl]-carbamoyl}amino)-1H-pyrazolo[4,3-c]pyridin-3-yl]-acetamide]
pIC50: 8.55

C[C@@H](NC(=O)Nc1cc2[nH]nc(NC(=O)c3cccnc3)c2cn1)c1ccccc1 [Example 211, N-[6-({[(1R)-1-phenylethyl]-carbamoyl}amino)-1H-pyrazolo[4,3-c]pyridin-3-yl]-pyridine-3-carboxamide]
pIC50: 8.51

C[C@@H](NC(=O)Nc1cc2[nH]nc(NC(=O)c3ccccn3)c2cn1)c1ccccc1 [Example 212, N-[6-({[(1R)-1-phenylethyl]-carbamoyl}amino)-1H-pyrazolo[4,3-c]pyridin-3-yl]-pyridine-2-carboxamide]
pIC50: 7.93

C[C@@H](NC(=O)Nc1cc2[nH]nc(NCC3CCC3)c2cn1)c1ccccc1 [Example 213, 1-{3-[(cyclobutylmethyl)amino]-1H-pyrazolo[4,3-c]-pyridin-6-yl}-3-[(1R)-1-phenylethyl]urea]
pIC50: 8.66

C[C@@H](NC(=O)Nc1cc2[nH]nc(NC(=O)c3ccncc3)c2cn1)c1ccccc1 [Example 214, N-[6-({[(1R)-1-phenylethyl]-carbamoyl}amino)-1H-pyrazolo[4,3-c]pyridin-3-yl]-pyridine-4-carboxamide]
pIC50: 8.54

C[C@@H](NC(=O)Nc1cc2[nH]nc(NC(=O)C(C)(C)C)c2cn1)c1ccccc1 [Example 215, 2,2-dimethyl-N-[6-({[(1R)-1-phenylethyl]-carbamoyl}amino)-1H-pyrazolo[4,3-c]pyridin-3-yl]-propanamide]
pIC50: 8.41

C[C@@H](NC(=O)Nc1cc2[nH]nc(NC3CC(N)C3)c2cn1)c1ccccc1 (stereo partly drawn) [Example 216, 1-{3-[(3-amino-cyclobutyl)amino]-1H-pyrazolo[4,3-c]pyridin-6-yl}-3-[(1R)-1-phenylethyl]urea]
pIC50: 7.92

C[C@@H](NC(=O)Nc1cc2[nH]nc(NC(=O)OC(C)(C)C)c2cn1)c1ccccc1 [Example 217, tert-butyl [6-({[(1R)-1-phenylethyl}-carbamoyl}amino)-1H-pyrazolo[4,3-c]pyridin-3-yl}-carbamate]
pIC50: 7.32

CC(C)NC(=O)Nc1n[nH]c2cc(NC(=O)N[C@H](C)c3ccccc3)ncc12 [Example 218, 1-(1-methylethyl)-3-[6-({[(1R)-1-phenylethyl]-carbamoyl}amino)-1H-pyrazolo[4,3-c]pyridin-3-yl]urea]
pIC50: 7.60

From patent US9233979B2, “Compounds that are ERK inhibitors” (Merck Sharp & Dohme Corp., priority 2012, dated 2016)
